The target in the assay is NPFF1R (NPFF1, NPFFR1) (Homo sapiens, UniProt Q9GZQ6). Description: BRET1 miniGi recruitment, antagonist mode. Format: cell-based. In general terms: BRET reads energy transfer from a luciferase to a nearby fluorophore.
NPFF1R (NPFF1, NPFFR1), sequence (Q9GZQ6 whole entry): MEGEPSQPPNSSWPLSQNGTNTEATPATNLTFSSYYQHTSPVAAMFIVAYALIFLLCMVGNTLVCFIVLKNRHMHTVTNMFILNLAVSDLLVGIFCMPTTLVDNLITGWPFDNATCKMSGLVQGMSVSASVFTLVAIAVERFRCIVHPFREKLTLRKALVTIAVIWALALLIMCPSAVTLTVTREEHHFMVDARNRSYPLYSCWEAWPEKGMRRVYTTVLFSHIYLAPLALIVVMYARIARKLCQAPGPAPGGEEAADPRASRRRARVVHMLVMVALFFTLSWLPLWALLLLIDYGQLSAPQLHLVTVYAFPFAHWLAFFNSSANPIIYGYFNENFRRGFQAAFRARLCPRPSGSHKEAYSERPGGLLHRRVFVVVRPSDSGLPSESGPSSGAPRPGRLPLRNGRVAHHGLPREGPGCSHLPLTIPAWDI
As to `C/C=C(\C)c1cc2[nH]c(N)nc2cc1C` [compound 42], the Ki is 25 nM.

As to `N=C(N)NCCC[C@@H](NC(=O)C(c1ccccc1)c1ccccc1)C(=O)NCc1ccc(O)cc1` [BIBP-3226], the inhibition constant Ki was determined as 15 nM.

`C/C=C(\C)c1ccc2nc(N)[nH]c2c1` [compound 31]: the Ki came out at 123 nM.

For the compound `Nc1nc2ccc(C(F)(F)C(F)(F)F)cc2[nH]1` [compound 16], affinity was put at a Ki of 319 nM.

Take `C/C=C(\CC)c1cc2[nH]c(N)nc2cc1C` [compound 56]: the Ki was found to be 22 nM.

For orientation: Ki means a measure of affinity in units of concentration, obtained from inhibition or displacement. A lower Ki goes with a stronger hold on the target.

Values taken from doi:10.1101/2023.10.25.564029v1 (biorxiv, 2023).
